Measured values published in PubChem BioAssay AID179 (DTP/NCI, 2004).
The source made the active and inactive calls.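 How the source made its calls: active means compounds giving half or more protection of infected cells from virus-caused growth loss, again on retest; inactive means the rest.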

Test system: CEM cells HIV-1 protection, formazan growth assay
Assay: NCI AIDS Antiviral Assay
Details: for IC50: measured here: growth of uninfected CEM cells
How it was run: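 Protection of CEM cells against HIV-1 was scored from cell growth (soluble formazan) across five concentrations, with parallel uninfected cells. Lack of protection may reflect toxicity.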

Question: With `COc1ccc2c(=O)c(C)c(-c3ccccc3)oc2c1CN(C)C` as the compound, how does the outcome read?
Answer: Its outcome is “inactive”.

Question: What does the source list for `CC(C)(C)OC(=O)NCC(CNC(=O)OC(C)(C)C)C(N)=O`?
Answer: EC50: > 407 µM; IC50: > 407 µM

Question: For `CNC(=O)N(CCCC(NC(C)=O)C(=O)NCc1ccccc1)Cc1ccccc1` (configuration not stated), which EC50 is on record?
Answer: Its EC50 is greater than 603 µM.

Question: What about the IC50 of the same compound?
Answer: Its IC50 is greater than 603 µM.

Question: What does the source list for `O=C(Nn1c(=S)[nH][nH]c1=S)c1ccccc1`?
Answer: EC50: > 200 µM; IC50: > 200 µM

Question: `Cc1cc(Br)ccc1N=Nc1c(C)nn(-c2ccccc2)c1-c1ccccc1` was tested. Which outcome did it give?
Answer: Its outcome is “inactive”.

Question: Which outcome does the source give for `COc1cccc(-c2nccc3c(OCc4ccccc4)c(OC)c(OC)cc23)c1` here?
Answer: Its outcome is “inactive”.

Question: `CN1CN(c2ccccc2)C2(CCN(CCCC3(c4cccs4)OCCO3)CC2)C1=O` was tested. Which EC50 did it give?
Answer: The EC50 was greater than 200 µM.

Question: And the IC50?
Answer: Its IC50 is 107 µM.

Question: For `N#Cc1c(-c2ccc(Cl)cc2)[nH]c(=O)n(C2OC(CO)C(O)C(O)C2O)c1=O` (configuration not stated), which EC50 is on record?
Answer: The EC50 was greater than 200 µM.

Question: And the IC50?
Answer: The IC50 was greater than 200 µM.

Question: `Cc1nc(NCc2ccccc2)c2cc[nH]c2n1` was tested. Which EC50 did it give?
Answer: The EC50 was greater than 174 µM.

Question: What about the IC50 of the same compound?
Answer: Its IC50 is 107 µM.

Question: Which outcome does the source give for `O=C(O)CCC1CCc2cccc(O)c2C1=O` (configuration not stated) here?
Answer: Its outcome is “inactive”.

Question: For `Cc1c(NC(=O)CSC(=S)N(C)C)c(=O)n(-c2ccccc2)n1C`, which EC50 is on record?
Answer: The EC50 was 89.1 µM.

Question: And the IC50?
Answer: Its IC50 is greater than 200 µM.

Question: With `CC(=O)Nn1cnc(C(=N)C#N)c1N` as the compound, how does the EC50 read?
Answer: The EC50 was greater than 200 µM.

Question: What about the IC50 of the same compound?
Answer: Its IC50 is greater than 200 µM.

Question: What does the source list for `N#C/C(=C/NC(=S)c1ccncc1)C(N)=O`?
Answer: EC50: > 200 µM; IC50: > 200 µM

Question: Which outcome does the source give for `O=C(/C(=N/N(C(=O)c1ccccc1)c1ccccc1)c1ccccc1)c1ccccc1` here?
Answer: Its outcome is “inactive”.

Question: `C/C(CC(=O)Nc1cccc([N+](=O)[O-])c1)=N\NC(=O)C[n+]1ccccc1` was tested. Which EC50 did it give?
Answer: The EC50 was greater than 631 µM.

Question: And the IC50?
Answer: Its IC50 is 240 µM.

Question: With `N=C1C=CC(=C(c2ccc(N)cc2)c2ccc(N)cc2)C=C1` as the compound, how does the outcome read?
Answer: Its outcome is “inactive”.

Question: How did the EC50 turn out when `IC[P+]1(c2ccccc2)CCCC1` was run?
Answer: The EC50 was greater than 575 µM.

Question: And the IC50?
Answer: The IC50 was 55 µM.

Question: Which results are given for `CC(=O)OC1CCC2C3CCc4c(C)ccc(OS(=O)(=O)c5ccccc5)c4C3CCC12C` (configuration not stated)?
Answer: EC50: > 200 µM; IC50: > 200 µM

Question: What does the source list for `Clc1ccc(C(=C=C(c2ccccc2)c2ccccc2)c2ccc(Cl)cc2)cc1`?
Answer: EC50: > 22.9 µM; IC50: > 22.9 µM

Question: Which results are given for `Cc1ccccc1NC(=O)C(=O)CC(=O)c1sc(-n2nc(-c3ccccc3)cc2-c2ccccc2)nc1C`?
Answer: EC50: > 479 µM; IC50: > 479 µM

Question: Which EC50 does the source give for `C=Cc1ccccc1N=NC(C(=O)OC)=P(c1ccccc1)(c1ccccc1)c1ccccc1` here?
Answer: Its EC50 is greater than 1.17 µM.

Question: What about the IC50 of the same compound?
Answer: The IC50 was greater than 1.17 µM.

Question: How did the EC50 turn out when `O=c1c2c3c(sc2nc2n1N=C(c1ccc([N+](=O)[O-])cc1)CS2)CCCC3` was run?
Answer: The EC50 was greater than 200 µM.

Question: And the IC50?
Answer: The IC50 was greater than 200 µM.

Question: For `O=C(c1cc(Cl)c(O)c(C(=O)O)c1)c1cc(Cl)c(O)c(C(=O)O)c1`, which EC50 is on record?
Answer: Its EC50 is greater than 61.7 µM.

Question: And the IC50?
Answer: Its IC50 is 56.2 µM.

Question: What does the source list for `COc1ccc(/C=C(\C)C=C(C#N)C#N)cc1`?
Answer: EC50: > 44.7 µM; IC50: 34.7 µM

Question: `CC(C)(C)c1cc[n+](C[n+]2ccc(C(C)(C)C)cc2)cc1` was tested. Which EC50 did it give?
Answer: Its EC50 is greater than 200 µM.

Question: What about the IC50 of the same compound?
Answer: The IC50 was greater than 200 µM.

Question: What does the source list for `CCOC(OC1=CCCC1)C(C)[Se]c1ccccc1` (configuration not stated)?
Answer: EC50: > 22.4 µM; IC50: > 22.4 µM

Question: For `[N-]=[N+]=CC(=O)CCC(=O)N(c1ccccc1)c1ccccc1`, which EC50 is on record?
Answer: Its EC50 is 135 µM.

Question: And the IC50?
Answer: Its IC50 is 195 µM.

Question: Which results are given for `CCC[CH2][Sn]([CH2]CCC)([O]C(=O)c1cccnc1SC)[O]C(=O)c1cccnc1SC`?
Answer: EC50: > 12.6 µM; IC50: 9.12 µM

Question: Which EC50 does the source give for `O=[N+]([O-])c1ccc(N2N=C(c3ccc4ccccc4c3O)CC2c2ccc(Cl)cc2Cl)c([N+](=O)[O-])c1` (configuration not stated) here?
Answer: Its EC50 is greater than 200 µM.

Question: And the IC50?
Answer: Its IC50 is 42.7 µM.

Question: `O=C(Cc1ccccc1)c1ccc(O)cc1O` was tested. Which EC50 did it give?
Answer: The EC50 was greater than 200 µM.

Question: And the IC50?
Answer: The IC50 was 85.1 µM.

Question: `CSc1nc2c(nc(N)n2C2OCC(O)C(O)C2O)c(=O)n1C` (configuration not stated) was tested. Which outcome did it give?
Answer: Its outcome is “inactive”.

Question: What does the source list for `CCN(CC)C1C(=O)NC1C#Cc1ccccc1` (configuration not stated)?
Answer: EC50: > 200 µM; IC50: 85.1 µM

Question: `CCOC(=O)c1c(SC(=O)c2cc(OC)c(OC)c(OC)c2)n(-c2ccccc2)c(=S)n(-c2ccccc2)c1=O` was tested. Which EC50 did it give?
Answer: The EC50 was greater than 200 µM.

Question: What about the IC50 of the same compound?
Answer: The IC50 was 32.4 µM.

Question: For `O=C(OCCC[P+](c1ccccc1)(c1ccccc1)c1ccccc1)c1ccccc1`, which EC50 is on record?
Answer: Its EC50 is greater than 200 µM.

Question: And the IC50?
Answer: Its IC50 is 3.39 µM.

Question: `CC1(C)CC[C@]2(C(=O)O)C(O)CC3(C)C(=CCC4[C@@]5(C)CC[C@H](OS(=O)(=O)O)C(C)(C)C5CC[C@]43C)[C@@H]2C1` (some centres not stated) was tested. Which EC50 did it give?
Answer: Its EC50 is greater than 219 µM.

Question: And the IC50?
Answer: The IC50 was greater than 219 µM.

Question: For `CC(=O)OC(C)(C)/C=C/C(=O)[C@](C)(O)[C@H]1[C@H](O)C[C@@]2(C)[C@@H]3CC=C4[C@@H](C=C(O)C(=O)C4(C)C)[C@]3(C)C(=O)C[C@]12C`, which EC50 is on record?
Answer: The EC50 was greater than 0.2 µM.

Question: And the IC50?
Answer: The IC50 was 0.00676 µM.

Question: How did the EC50 turn out when `O=C1c2ccccc2-c2cccc3cccc1c23` was run?
Answer: The EC50 was greater than 16.2 µM.

Question: What about the IC50 of the same compound?
Answer: The IC50 was greater than 16.2 µM.

Question: How did the EC50 turn out when `OCC(O)C1OC(c2ccco2)OC(CO)C1O` (configuration not stated) was run?
Answer: The EC50 was greater than 200 µM.

Question: And the IC50?
Answer: The IC50 was greater than 200 µM.

Question: `Cc1nc(NC(=S)NC(=O)c2ccc(Cl)c(Cl)c2)sc1C(=O)/C=C/c1ccccc1[N+](=O)[O-]` was tested. Which EC50 did it give?
Answer: The EC50 was greater than 19.1 µM.

Question: And the IC50?
Answer: The IC50 was greater than 19.1 µM.

Question: How did the EC50 turn out when `CCNC(=O)OCc1cnc(C)c(OC(=O)NCC)c1COC(=O)NCC` was run?
Answer: Its EC50 is greater than 200 µM.

Question: And the IC50?
Answer: The IC50 was 31.6 µM.

Question: Which EC50 does the source give for `S=c1[nH]n2c(CCCCCCCCc3nnc4sc(=S)[nH]n34)nnc2s1` here?
Answer: Its EC50 is 123 µM.

Question: What about the IC50 of the same compound?
Answer: Its IC50 is 178 µM.

Question: With `COC(=O)c1ccccc1/C=C1\Cc2c(ccc3c2CCC3)C1=O` as the compound, how does the EC50 read?
Answer: Its EC50 is greater than 151 µM.

Question: And the IC50?
Answer: Its IC50 is greater than 151 µM.
